# Read-outs that look alike come from different tables or passages of the source.
# Key:
# Ewing sarcoma cell lines [1] = assay: Dose-response cytotoxicity in Ewing sarcoma cell lines; format: cell-based
# ES-6 cells [2] = assay: Dose-response cytotoxicity in ES-6 cells; format: cell-based; conditions: for Sensitivity (cytotoxicity): 144 hours
# SAOS2 = assay: Dose-response cytotoxicity in SAOS2; format: cell-based
# [3] = ref Morton et al., 2005, 2000; cited from earlier work
# EWS cell lines = assay: Drug-pair cytotoxicity with response surface model
# [4] = Plasma and tumor pharmacokinetics in mice with orthotopic xenografts; format: in vivo, CD1-nude mice; conditions: for concentration at 12 h: CD1-nude, mouse, orthotopic xenograft tumor, po; for Murine equivalent dose (most appropriate dose for twice-daily oral administration in mice): from plasma AUC in mice compared with plasma PK data in patients
# PARP1 = PARP1 (Homo sapiens, UniProt P09874); conditions: 10 micromolar PARPi + 0.01% MMS
# PARP1, sequence (P09874 whole entry): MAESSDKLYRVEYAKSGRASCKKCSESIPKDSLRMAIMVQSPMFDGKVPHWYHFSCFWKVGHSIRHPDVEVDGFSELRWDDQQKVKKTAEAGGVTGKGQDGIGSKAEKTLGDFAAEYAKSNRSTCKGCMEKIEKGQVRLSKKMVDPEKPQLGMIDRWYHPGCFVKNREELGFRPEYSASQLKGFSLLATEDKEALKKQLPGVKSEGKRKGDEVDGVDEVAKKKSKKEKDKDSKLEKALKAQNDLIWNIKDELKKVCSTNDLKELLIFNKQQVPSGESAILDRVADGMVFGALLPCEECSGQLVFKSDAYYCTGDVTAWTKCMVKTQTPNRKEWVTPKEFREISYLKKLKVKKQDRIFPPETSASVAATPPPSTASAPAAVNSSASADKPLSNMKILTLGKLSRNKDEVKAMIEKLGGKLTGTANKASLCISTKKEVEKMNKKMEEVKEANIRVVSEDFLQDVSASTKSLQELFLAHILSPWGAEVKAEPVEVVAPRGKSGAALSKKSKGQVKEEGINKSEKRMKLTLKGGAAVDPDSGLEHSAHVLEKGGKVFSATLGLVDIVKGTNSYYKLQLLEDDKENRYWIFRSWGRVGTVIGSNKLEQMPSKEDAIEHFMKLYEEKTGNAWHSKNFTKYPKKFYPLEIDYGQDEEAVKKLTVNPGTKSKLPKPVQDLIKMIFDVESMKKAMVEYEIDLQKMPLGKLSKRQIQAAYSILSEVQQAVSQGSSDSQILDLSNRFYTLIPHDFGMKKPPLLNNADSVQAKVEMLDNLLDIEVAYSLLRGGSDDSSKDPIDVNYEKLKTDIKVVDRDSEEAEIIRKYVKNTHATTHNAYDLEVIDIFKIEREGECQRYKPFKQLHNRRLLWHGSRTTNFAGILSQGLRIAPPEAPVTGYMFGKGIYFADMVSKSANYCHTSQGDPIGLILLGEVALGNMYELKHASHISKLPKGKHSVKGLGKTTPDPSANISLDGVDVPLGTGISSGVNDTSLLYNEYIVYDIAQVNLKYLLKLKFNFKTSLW
# ES-8 EWS cells = assay: Single-cell alkali gel electrophoresis; format: cell-based; conditions: after 12 hours of exposure to the PARPi
# Ewing sarcoma cell lines [5] = conditions: ref Brenner et al., 2012, Garnett et al.; cited from earlier work
# ES-6 cells [6] = conditions: 72 hours, ref Garnett et al., 2012; cited from earlier work
# ES-6 cells [7] = conditions: later timepoints, ref Garnett et al., 2012; cited from earlier work
# [8] = TMZ to 10 mg/kg in mice; BMN-673 to 0.1 mg/kg (of the MED)
# [9] = translocation-positive EWS cell lines, RSM
# [10] = EW-8, ES-8, and ES-1 cells, 72 hours of exposure
smiles,measurement,setting,value
CCc1c2c(nc3ccc(O)cc13)-c1cc3c(c(=O)n1C2)COC(=O)[C@]3(O)CC [SN-38],EC50,"Ewing sarcoma cell lines [1]; 144 hours, all EWS cell lines tested excluding ES-6",< 10 nM
same,Potency compared to other EWS cell lines,ES-6 cells [2],significantly lower potency
same,EC50,SAOS2,< 100 nM
same,Cmax and AUC of SN-38 in mouse plasma versus human plasma,[3],slightly higher
same,Concentration at which PARPi is significantly potentiated,EWS cell lines; [9],1 to 10 nM
C[C@]1(c2nc3c(C(N)=O)cccc3[nH]2)CCCN1 [veliparib],Sensitivity (cytotoxicity),"Ewing sarcoma cell lines [1]; all EWS cell lines except ES-6, 144 hours",marginal
same,Sensitivity (cytotoxicity),ES-6 cells [2],resistant
same,concentration at 12 h,[4],≥ 50 nM
same,Murine equivalent dose (most appropriate dose for twice-daily oral administration in mice),[4],12.5 mg/kg
same,PARP trapping potential (rank order),PARP1,BMN-673 > olaparib > veliparib
Cn1ncnc1[C@H]1c2n[nH]c(=O)c3cc(F)cc(c23)N[C@@H]1c1ccc(F)cc1 [BMN-673],Sensitivity (cytotoxicity),Ewing sarcoma cell lines [1]; [10],sensitive
same,Sensitivity (cytotoxicity),ES-6 cells [2],resistant
same,Basal level of DNA damage (comet tail moment),ES-8 EWS cells; 1 or 10 μM,elevated
same,concentration at 12 h,[4],≥ 15 nM
same,Murine equivalent dose (most appropriate dose for twice-daily oral administration in mice),[4],0.125 mg/kg
O=C(c1cc(Cc2n[nH]c(=O)c3ccccc23)ccc1F)N1CCN(C(=O)C2CC2)CC1 [olaparib],Sensitivity (cytotoxicity),Ewing sarcoma cell lines [1]; [10],sensitive
same,Potency compared to other EWS cell lines,ES-6 cells [2],significantly lower potency
same,Basal level of DNA damage (comet tail moment),ES-8 EWS cells; 10 μM,elevated
same,concentration at 12 h,[4],≥ 90 nM
same,Murine equivalent dose (most appropriate dose for twice-daily oral administration in mice),[4],50 mg/kg
same,Sensitivity of EWS cell lines,Ewing sarcoma cell lines [5],sensitive
same,Sensitivity (cytotoxicity),ES-6 cells [6],resistant
same,Sensitivity in colony assays,ES-6 cells [7],some sensitivity
"Cn1nnc2c(C(N)=O)ncn2c1=O [TMZ, temozolomide]",EC50,Ewing sarcoma cell lines [1]; 144 h,> 100000 nM
same,Dose reduction needed to make the BMN-673 + TMZ combination tolerable,[8],70%
same,Fold higher concentration of TMZ required for the same level of potentiation as IRN,EWS cell lines; potentiation of PARPi-mediated killing of EWS cells,"≥ 1,000 fold"
same,Concentration required for the same level of PARPi potentiation,EWS cell lines; [9],10 to 100 µM
